Measured values: patent US5917053A, “Indole-2,3-dione-3-oxime derivatives, their preparation and use” (Neurosearch A/S, priority 1994, dated 1999)

Experiments:
[1] = system: cultured mouse cerebral cortex neurons; assay: Inhibition of stimulated 3H-GABA release from cultured cerebral cortex neurons; type: cell-based; settings: Cerebral cortex neuron, 37° C., pH 7.4, stimulated 30 sec every 4 min
Text: The compounds of the invention have also been tested for their ability to inhibit GABA release from cultured mouse cerebral cortex neurons using the following test:
Background: Neurons which express receptors for excitatory amino acids can be depolarized by such compounds and this depolarization will ultimately lead to a release of transmitter substance from the neurons. Cultured neurons obtained from 15-day-old mouse embryo cortex are mainly GABAergic and express all types of excitatory amino acid receptors. This means that they can be stimulated by high potassium or by the excitatory amino acids, NMDA, AMPA and kainate to release their neurotransmitter GABA.
^3 H-GABA may be used to label the GABA transmitter pool in the neurons and the release of ^3 H-GABA from the neurons may be used as a simple functional model for studies of the effects of excitatory amino acids and their antagonists.
Method: Cerebral cortices of 16-day-old mouse embryos are chopped in 0.4×0.4 mm cubes. The tissue is dissociated by mild trypsinization (0.1% (wt/vol) trypsin, 37° C., 15 min) and subsequently inoculated into poly-L-lysine-coated 3-cm Petri dishes containing a slightly modified DMEM (24.5 mM KCI, 30 mM glucose) supplemented with p-aminobenzoate (7 μM), insulin (100 mU/L) and 10% (vol/vol) horse serum. Cells are maintained in culture for 5-7 days with the addition of the antimitotic agent cytosine arbinoside (40 μM) from day 2 in vitro to prevent glial profileration. For further details and references, see Drejer et al. Exp. Brain Res. 47, 259 (1982).
Release experiments are performed using the model described by Drejer et al. Life Sci. 38, 2077 (1986). Cerebral cortex neurons cultured in Petri dishes (30 mm) are added 100 μM γ-vinyl-GABA one hour before the experiment in order to inhibit degradation of GABA in the neurons. 30 min before the experiment 5 μCi ^3 H-GABA is added to each culture and after this preloading period the cell monolayer at the bottom of the dish is covered with a piece of nylon mesh to protect the cells against mechanical damage and to facilitate dispersion of medium over the cell layer. The preloading medium is removed and the Petri dishes are placed in a superfusion system consisting of a peristaltic pump continously delivering thermostated 37° C. superfusion medium HEPES buffered saline (HBS): 10 mM HEPES, 135 mM NaCl, 5 mM KCl, 0.6 mM MgSO4, 1.0 mM CaCl2 and 6 mM D-glucose; pH 7.4) from a reservoir to the top of the slightly tilted Petri dish. The medium is continously collected from the lower part of the dish and delivered to a fraction collector. Initially, the cells are superfused with HBS for 15 min (flow rate 2 ml/min). Then the cells are stimulated for 30 sec every 4 min by changing the superfusion medium from HBS to a corresponding medium containing […].
Test subtances are dissolved in 50% DMSO, 48% ethanol. The final DMSO and ethanol concentration in the assay must not exceed 0.1%.
The stimulated release of ^3 H-GABA (cpm) are corrected for the mean basal release(cpm) before and after stimulation.
The stimulated release in the presence of antagonists are expressed relative to the stimulated release and the IC50 value for the antagonist is calculated (the concentration (μM) of the test substance which inhibit 50% of the stimulated ^3 H-GABA release).

AMPA receptor = AMPA receptor affinity (receptor binding, as described by T. Honore et al.); settings: Neuroscience Letters 54, 27-32 (1985)
Text: In Vitro activity (receptor affinity):
The compounds of the present invention has been tested for their affinity for the AMPA receptor as described by T. Honore et al., Neuroscience Letters 54, 27-32 (1985). IC50 values appear from the following Table 1.

Gerbils = assay: Transient Forebrain Ischemia Model (2-VO Gerbils), global ischaemia, hippocampal damage; type: in vivo, gerbil; settings: 30 mg/kg bolus i.v. followed by one hour infusion of 30 mg/kg (total 60 mg/kg) after 4 min occlusion; read four days later; Mann-Whitney Rank Sum Test
Experimental: The compound, 8-methyl-5-(4-(N,N-dimethylsulphamoyl)phenyl)-6,7,8,9-tetrahydro-1H-pyrrolo[3,2-h]isoquinoline-2,3-dione-3-O-(N-ethylcarbamoyl)oxime has also been tested in the following animal moder of global ischaemia:
Transient Forebrain Ischemia Model (2-VO Gerbils)
Gerbils were anaesthetized with halothane, right and left carotid arteries located and occluded for 4 minutes. Animals were kept warm before and after the operation using heating lamps. During the operation the gerbils were placed on heating plates, body temperature controlled and maintained at 37±0.5° C. Postocclusion, the gerbils were divided in two groups. One group received 30 mg/kg test compound as a bolus injection i.v. followed by a one hour infusion of 30 mg/kg test compound (total dose was 60 mg/kg). The control group received 0.9% NaCl in the same infusion volume as the treated group. Four days later, the animals were sacrificed, brains removed and cooled to -70° C. Thereafter, the brains were sectioned in […] thick sections of which 5-7 with hippocampal tissue were selected and stained with hematoxylin eosine (HE).
Based upon the degree of hippocampal damage, each hippocampus was categorised into one of four groups (Group 1: no damage in the CA1-layer; Group 2: the CA1-layer partly damaged; Group 3: the CA1-layer completely damaged; and Group 4: damage in more than just the CA1-layer). […]

| SMILES | IC50 [1] [µM] | IC50 (AMPA receptor) [µM] | neuroprotective effect in the gerbil 2-VO model (ischemic score, hippocampal damage) (Gerbils) |
| --- | --- | --- | --- |
| CCN1Cc2c(-c3ccccc3)cc3c(c2C1)NC(=O)C3=NOC(C)=O [7-ethyl-5-phenyl-1,6,7,8-tetrahydrobenzo[2,1-b:3,4-c]dipyrrole-2,3-dione 3-O-acetyloxime] | 2.7 | 1.7 |  |
| CN1CCc2c(-c3ccc(S(=O)(=O)N(C)C)cc3)cc3c(c2C1)NC(=O)C3=NOC(=O)NC1CCCCC1 [8-methyl-5-(4-(N,N-dimethylsulphamoyl)phenyl)-6,7,8,9-tetrahydro-1H-pyrrolo[3,2-h]isoquinoline-2,3-dione-3-O-(N-cyclohexylcarbamoyl)oxime] |  | 0.014 |  |
| CCNC(=O)ON=C1C(=O)Nc2c1cc(-c1ccc(S(=O)(=O)N(C)C)cc1)c1c2CN(C)CC1 [8-methyl-5-(4-(N,N-dimethylsulphamoyl)phenyl)-6,7,8,9-tetrahydro-1H-pyrrolo[3,2-h]isoquinoline-2,3-dione-3-O-(N-ethylcarbamoyl)oxime] | 0.19 | 0.038 | significant neuroprotective effect |
| CCNC(=O)ON=C1C(=O)Nc2c1cc(-c1ccccc1)c1c2CN(C)CC1 [8-methyl-5-phenyl-6,7,8,9-tetrahydro-1H-pyrrolo[3,2-h]isoquinoline-2,3-dione-3-O-(N-ethylcarbamoyl)oxime] | 1.4 | 0.35 |  |
| CC(=O)ON=C1C(=O)Nc2c1cc(-c1ccccc1)c1c2CN(C)CC1 [8-methyl-5-phenyl-6,7,8,9-tetrahydro-1H-pyrrolo[3,2-h]isoquinoline-2,3-dione-3-O-acetyloxime] | 2.9 | 0.15 |  |
| CN1CCc2c(-c3ccccc3)cc3c(c2C1)NC(=O)C3=NOC(=O)C(C)(C)C [8-methyl-5-phenyl-6,7,8,9-tetrahydro-1H-pyrrolo[3,2-h]isoquinoline-2,3-dione-3-O-pivaloyloxime] | > 3 | 0.19 |  |
